Data on 19 compounds can be found in patent US11667651B2, “Aminopyridine derivatives as phosphatidylinositol phosphate kinase inhibitors” (HiberCell, Inc., priority 2017, dated 2023).

Format in all cases: biochemical
One test addresses T1, PIP4K2B (Homo sapiens, UniProt P78356).
T1 construct: made in house; host or cells: E. coli
T1 sequence (P78356 1-416): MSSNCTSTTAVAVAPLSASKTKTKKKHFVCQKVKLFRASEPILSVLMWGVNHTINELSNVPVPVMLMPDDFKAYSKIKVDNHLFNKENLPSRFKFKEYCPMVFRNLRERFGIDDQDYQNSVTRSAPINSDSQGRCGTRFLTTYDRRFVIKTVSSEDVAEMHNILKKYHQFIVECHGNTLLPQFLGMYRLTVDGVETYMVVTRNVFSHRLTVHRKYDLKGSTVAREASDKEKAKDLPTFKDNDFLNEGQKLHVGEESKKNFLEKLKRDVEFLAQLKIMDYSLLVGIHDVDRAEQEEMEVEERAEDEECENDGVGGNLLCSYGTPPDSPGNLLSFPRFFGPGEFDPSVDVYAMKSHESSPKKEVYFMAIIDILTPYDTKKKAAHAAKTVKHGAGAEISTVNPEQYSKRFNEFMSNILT
Nature of the test: Trans-FI P kinase assay PIP4K2B (Table 4). Particulars: compounds listed under IC50 bins; read-out: Trans-FI P kinase assays: PIP4K2B IC50. The gist of the method:
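Transcreener FI detection (Ex 584/Em 623) of GDP, converted via calibration curve, gives IC50 from residual activity versus log concentration (highest 4.8 μM). Reaction: 80 μM PI5P plus DOPE carrier, 100 μM GTP, 5 nM GST-tagged enzyme, pH 7.3 HEPES with MgCl2 and 5% DMSO, 2 h after 1 h enzyme-compound preincubation at 27° C.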

The target of test [1] is T2, PIP4K2A (Homo sapiens, UniProt P48426).
T2 sequence (P48426 1-406): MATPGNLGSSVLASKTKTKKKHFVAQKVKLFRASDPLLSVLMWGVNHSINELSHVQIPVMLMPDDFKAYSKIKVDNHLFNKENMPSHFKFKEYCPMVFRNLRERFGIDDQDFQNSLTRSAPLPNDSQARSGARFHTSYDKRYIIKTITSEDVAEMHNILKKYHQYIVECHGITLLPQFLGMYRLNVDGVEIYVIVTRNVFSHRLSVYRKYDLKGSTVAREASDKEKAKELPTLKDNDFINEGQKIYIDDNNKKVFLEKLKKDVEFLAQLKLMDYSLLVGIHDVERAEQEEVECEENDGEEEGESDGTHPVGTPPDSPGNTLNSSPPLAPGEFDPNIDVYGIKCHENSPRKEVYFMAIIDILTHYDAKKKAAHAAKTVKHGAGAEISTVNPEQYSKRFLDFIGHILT
Nature of the test: ADP-glo kinase assay PIP4K 2A (Table 3). Details: made in house; host or cells: E. coli. Particulars: compounds listed under IC50 bins. The gist of the method: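 ADP-Glo luminescence detected ADP after 1 h RT reaction started by ATP (60 μM solution) on full-length PIP4K2A (4 nM in mix) and PI(5)P diC8 (100 μM in mix), preceded by 15 min enzyme-compound preincubation in MOPS pH 7.2/25 mM MgCl2. Percent inhibition versus DMSO over 10 concentrations fitted for IC50.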

Test [2] deals with T2, PIP4K2A. Nature of the test: Kinase Assay PIP4K2 A (Table 2). Further details: 4 nM PIP4K2A (full length protein, SignalChem); purchased SignalChem. Particulars: compounds listed under IC50 bins. The gist of the method: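 ADP-Glo luminescent read-out after 1 h room-temperature kinase reaction, started with 60 μM ATP solution following 15 min compound pre-incubation. Enzyme/substrate mix: 4 nM full-length PIP4K2A plus 100 μM PI(5)P diC8; buffer MOPS pH 7.2 with 25 mM MgCl2 and Tween 20. IC50 from 10-point, 3-fold titrations normalized to DMSO.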

Molecules are shown by their SMILES.

`CC(C)S(=O)(=O)N1CCOc2ncc(Nc3ccc(-c4ccc(N5CCCC5=O)cc4)cn3)cc21` [Example 153, 1-(4-(6-((1-(isopropylsulfonyl)-2,3-dihydro-1H-pyrido[2,3-b][1,4]oxazin-7-yl)amino)pyridin-3-yl)phenyl)pyrrolidin-2-one]: the 50% inhibitory concentration (IC50) (usually the concentration that gives 50% inhibition) was in the range of 10 to 100 nM at PIP4K2B, 100 to 1000 nM against PIP4K2A [1] and 10 to 100 nM at PIP4K2A [2].

Turning to `O=C1CCCN1c1ccc(-c2ccc(Nc3cnc4c(c3)N(S(=O)(=O)C3CC3)CCO4)nc2)cc1` [Example 154, 1-(4-(6-((1-(cyclopropylsulfonyl)-2,3-dihydro-1H-pyrido[2,3-b][1,4]oxazin-7-yl)amino)pyridin-3-yl)phenyl)pyrrolidin-2-one], the IC50 on PIP4K2B, against PIP4K2A [1] and against PIP4K2A [2] was 10 to 100 nM each time.

In the case of `CC(C)(C)C(=O)N1CCOc2ncc(Nc3ccc(-c4ccc(N5CCCC5=O)cc4)cn3)cc21` [Example 155, 1-(4-(6-((1-pivaloyl-2,3-dihydro-1H-pyrido[2,3-b][1,4]oxazin-7-yl)amino)pyridin-3-yl)phenyl)pyrrolidin-2-one], the concentration for half-maximal inhibition (IC50) on PIP4K2B lay in the range of 10 to 100 nM; against PIP4K2A [1], 1 to 10 nM; on PIP4K2A [2] it was 1 to 10 nM.

With `CS(=O)(=O)N1CCOc2ncc(Nc3ccc(-c4ccc(N5CCCC5=O)cc4)cn3)cc21` [Example 156, 1-(4-(6-((1-(methylsulfonyl)-2,3-dihydro-1H-pyrido[2,3-b][1,4]oxazin-7-yl)amino)pyridin-3-yl)phenyl)pyrrolidin-2-one], the IC50 at PIP4K2B lay in the range of 10 to 100 nM; on PIP4K2A [1], 10 to 100 nM; at PIP4K2A [2], 1 to 10 nM.

Consider `CN(c1cncc(Nc2ccc(-c3ccc(N4CCCC4=O)cc3)cn2)c1)S(C)(=O)=O` [Example 157, N-methyl-N-(5-((5-(4-(2-oxopyrrolidin-1-yl)phenyl)pyridin-2-yl)amino)pyridin-3-yl)methanesulfonamide], for which the half-inhibitory concentration (IC50) at PIP4K2B, against PIP4K2A [1] and on PIP4K2A [2] was 10 to 100 nM throughout.

As to `COc1ncc(Nc2ccc(-c3ccc(N4CCCC4=O)cc3)cn2)cc1NC(C)=O` [Example 158, N-(2-methoxy-5-((5-(4-(2-oxopyrrolidin-1-yl)phenyl)pyridin-2-yl)amino)pyridin-3-yl)acetamide], the values for the IC50 on PIP4K2B, on PIP4K2A [1] and against PIP4K2A [2] were 10 to 100 nM, 100 to 1000 nM and 100 to 1000 nM, respectively.

For the compound `COc1ncc(Nc2ccc(-c3ccc(N4CCCC4=O)cc3)cn2)cc1NS(C)(=O)=O` [Example 159, N-(2-methoxy-5-((5-(4-(2-oxopyrrolidin-1-yl)phenyl)pyridin-2-yl)amino)pyridin-3-yl)methanesulfonamide], the IC50 at PIP4K2B is 10 to 100 nM; against PIP4K2A [1], 100 to 1000 nM; against PIP4K2A [2] it was 10 to 100 nM.

Regarding `COc1ncc(Nc2ccc(-c3ccc(N4CCCC4=O)cc3)cn2)cc1N(C)C(C)=O` [Example 160, N-(2-methoxy-5-((5-(4-(2-oxopyrrolidin-1-yl)phenyl)pyridin-2-yl)amino)pyridin-3-yl)-N-methylacetamide], the IC50 on PIP4K2B, against PIP4K2A [1] and against PIP4K2A [2] was more than 1000 nM in each case.

For `COc1ncc(Nc2ccc(-c3ccc(N4CCCC4=O)cc3)cn2)cc1N(C)S(C)(=O)=O` [Example 161, N-(2-methoxy-5-((5-(4-(2-oxopyrrolidin-1-yl)phenyl)pyridin-2-yl)amino)pyridin-3-yl)-N-methylmethanesulfonamide], the IC50 at PIP4K2B fell in the range of 10 to 100 nM; at PIP4K2A [1], 100 to 1000 nM; against PIP4K2A [2], 100 to 1000 nM.

`O=C1CCCN1c1ccc(-c2cnc(Nc3cnc4c(c3)N3C(=O)CC[C@H]3CO4)cn2)cc1` [Example 162, (S)-2-((5-(4-(2-oxopyrrolidin-1-yl)phenyl)pyrazin-2-yl)amino)-6,6a,7,8-tetrahydro-9H-pyrido[2,3-b]pyrrolo[1,2-d][1,4]oxazin-9-one]: the IC50 on PIP4K2B, against PIP4K2A [1] and at PIP4K2A [2] was 10 to 100 nM throughout.

Turning to `O=C1CCCN1c1ccc(-c2ccc(Nc3cncc(N4CCN(Cc5cscn5)C4=O)c3)nc2)cc1` [Example 163, 1-(5-((5-(4-(2-oxopyrrolidin-1-yl)phenyl)pyridin-2-yl)amino)pyridin-3-yl)-3-(thiazol-4-ylmethyl)imidazolidin-2-one], the IC50 on PIP4K2B lay in the range of 10 to 100 nM; against PIP4K2A [1] it was 1 to 10 nM; at PIP4K2A [2], 1 to 10 nM.

On to `O=C1CCCN1c1ccc(-c2cnc(Nc3cncc(N4CCN(Cc5cscn5)C4=O)c3)cn2)cc1` [Example 164, 1-(5-((5-(4-(2-oxopyrrolidin-1-yl)phenyl)pyrazin-2-yl)amino)pyridin-3-yl)-3-(thiazol-4-ylmethyl)imidazolidin-2-one], for which the IC50 lay in the range of 10 to 100 nM at PIP4K2B, 1 to 10 nM at PIP4K2A [1] and 1 to 10 nM against PIP4K2A [2].

As to `O=C1CCCN1c1ccc(-c2ccc(Nc3cncc(N4CCN(Cc5cocn5)C4=O)c3)nc2)cc1` [Example 165, 1-(oxazol-4-ylmethyl)-3-(5-((5-(4-(2-oxopyrrolidin-1-yl)phenyl)pyridin-2-yl)amino)pyridin-3-yl)imidazolidin-2-one], the IC50 on PIP4K2B, on PIP4K2A [1] and at PIP4K2A [2] was 10 to 100 nM throughout.

Take `O=C1CCCN1c1ccc(-c2ccc(Nc3cncc(N4CCN(Cc5cnco5)C4=O)c3)nc2)cc1` [Example 166, 1-(oxazol-5-ylmethyl)-3-(5-((5-(4-(2-oxopyrrolidin-1-yl)phenyl)pyridin-2-yl)amino)pyridin-3-yl)imidazolidin-2-one]: the IC50 at PIP4K2B, against PIP4K2A [1] and at PIP4K2A [2] was 10 to 100 nM throughout.

On to `CN1CCN(c2cncc(Nc3ccc(-c4ccc(N5CCCC5=O)cc4)cn3)c2)S1(=O)=O` [Example 174, 1-(4-(6-((5-(5-methyl-1,1-dioxido-1,2,5-thiadiazolidin-2-yl)pyridin-3-yl)amino)pyridin-3-yl)phenyl)pyrrolidin-2-one], for which the IC50 at PIP4K2B fell in the range of 10 to 100 nM; at PIP4K2A [1], 10 to 100 nM; at PIP4K2A [2] it was 1 to 10 nM.

On to `CC(C)c1cc(Nc2cnc3c(c2)N2C(=O)CC[C@H]2CO3)ncc1-c1ccc(N2CCCC2=O)cc1` [Example 177, (S)-2-((4-isopropyl-5-(4-(2-oxopyrrolidin-1-yl)phenyl)pyridin-2-yl)amino)-6,6a,7,8-tetrahydro-9H-pyrido[2,3-b]pyrrolo[1,2-d][1,4]oxazin-9-one], for which the IC50 was 1 to 10 nM at PIP4K2B, 1 to 10 nM at PIP4K2A [1] and not above 1 nM against PIP4K2A [2].

Turning to `O=C1CCCN1c1ccc(-c2cnc(Nc3cnc4c(c3)N3C(=O)CC[C@H]3CO4)cc2C2CC2)cc1` [Example 178, (S)-2-((4-cyclopropyl-5-(4-(2-oxopyrrolidin-1-yl)phenyl)pyridin-2-yl)amino)-6,6a,7,8-tetrahydro-9H-pyrido[2,3-b]pyrrolo[1,2-d][1,4]oxazin-9-one], the IC50 on PIP4K2B, at PIP4K2A [1] and at PIP4K2A [2] was 1 to 10 nM throughout.

Regarding `COc1cc(Nc2cnc3c(c2)N2C(=O)CC[C@H]2CO3)ncc1-c1ccc(N2CCCC2=O)cc1` [Example 179, (S)-2-((4-methoxy-5-(4-(2-oxopyrrolidin-1-yl)phenyl)pyridin-2-yl)amino)-6,6a,7,8-tetrahydro-9H-pyrido[2,3-b]pyrrolo[1,2-d][1,4]oxazin-9-one], the IC50 at PIP4K2B is 1 to 10 nM; on PIP4K2A [1], 1 to 10 nM; at PIP4K2A [2] it was not above 1 nM.

`COc1cc(Nc2cnc3c(c2)N2C(=O)CC[C@H]2CO3)ncc1-c1ccc(N2CCCC2=O)c(F)c1` [Example 183, (S)-2-((5-(3-fluoro-4-(2-oxopyrrolidin-1-yl)phenyl)-4-methoxypyridin-2-yl)amino)-6,6a,7,8-tetrahydro-9H-pyrido[2,3-b]pyrrolo[1,2-d][1,4]oxazin-9-one]: the IC50 at PIP4K2B is 10 to 100 nM; against PIP4K2A [1], 1 to 10 nM; on PIP4K2A [2], not above 1 nM.
